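Protocol summary: plate cells (96-well), add compound at 5 concentrations, incubate 48 h, interpolate endpoints linearly. GI50 marks 50% less growth.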 Activity calls are given as the source filed them. No stated cut-off is given here; in the data, active = GI50 up to about 1.1 µM and inactive = higher.
What was measured:
Experiment in all cases: growth of human tumour cells (NCI), 48 h
786-0 = tested on: 786-0
A549 = tested on: A549
ACHN = tested on: ACHN
BT-549 = tested on: BT-549
CAKI-1 = tested on: CAKI-1
CCRF-CEM = tested on: CCRF-CEM
COLO 205 = tested on: COLO 205
DU-145 = tested on: DU-145
EKVX = tested on: EKVX
HCC 2998 = tested on: HCC 2998
HCT-116 = tested on: HCT-116
HCT-15 = tested on: HCT-15
HL-60 = tested on: HL-60
HOP-62 = tested on: HOP-62
HT-29 = tested on: HT-29
Hs-578T = tested on: Hs-578T
IGROV-1 = tested on: IGROV-1
K562 = tested on: K562
KM12 = tested on: KM12
LOX IMVI = tested on: LOX IMVI
M14 = tested on: M14
MCF7 = tested on: MCF7
MDA-MB-231 = tested on: MDA-MB-231
MDA-MB-435 = tested on: MDA-MB-435
MDA-N = tested on: MDA-N
MOLT-4 = tested on: MOLT-4
Malme-3M = tested on: Malme-3M
NCI-H226 = tested on: NCI-H226
NCI-H23 = tested on: NCI-H23
NCI-H460 = tested on: NCI-H460
NCI/ADR-RES = tested on: NCI/ADR-RES
OVCAR-3 = tested on: OVCAR-3
OVCAR-4 = tested on: OVCAR-4
OVCAR-5 = tested on: OVCAR-5
OVCAR-8 = tested on: OVCAR-8
PC-3 = tested on: PC-3
RPMI-8226 = tested on: RPMI-8226
RXF 393 = tested on: RXF 393
SF-268 = tested on: SF-268
SF-295 = tested on: SF-295
SK-MEL-28 = tested on: SK-MEL-28
SK-MEL-2 = tested on: SK-MEL-2
SK-MEL-5 = tested on: SK-MEL-5
SK-OV-3 = tested on: SK-OV-3
SN12C = tested on: SN12C
SNB-19 = tested on: SNB-19
SNB-75 = tested on: SNB-75
SR = tested on: SR
SW-620 = tested on: SW-620
T47D = tested on: T47D
TK-10 = tested on: TK-10
U-251 = tested on: U-251
UACC-257 = tested on: UACC-257
UACC-62 = tested on: UACC-62
UO-31 = tested on: UO-31
HOP-92 = tested on: HOP-92
SF-539 = tested on: SF-539

In the case of CC(=O)Nc1ccc(OC2=CCN(C)CC2)cc1, the GI50 (786-0) is reported as > 100 µM (inactive), the GI50 (A549) is reported as > 100 µM (inactive) and the GI50 (ACHN) is reported as > 100 µM (inactive). The GI50 (BT-549) was > 100 µM (inactive), the GI50 (CAKI-1) was > 100 µM (inactive) and the GI50 (CCRF-CEM) was > 100 µM (inactive). The GI50 (COLO 205) was > 100 µM (inactive), the GI50 (DU-145) was > 100 µM (inactive) and the GI50 (EKVX) was > 100 µM (inactive). For the same molecule, the GI50 (HCC 2998) was > 100 µM (inactive), the GI50 (HCT-116) was > 100 µM (inactive) and the GI50 (HCT-15) was over 100 µM. For the same molecule, the GI50 (HL-60) was > 100 µM (inactive), the GI50 (HOP-62) was > 100 µM (inactive) and the GI50 (HT-29) was > 100 µM (inactive). For the same molecule, the GI50 (Hs-578T) was > 100 µM (inactive), the GI50 (IGROV-1) was > 100 µM (inactive) and the GI50 (K562) was > 100 µM (inactive). The GI50 (KM12) was > 100 µM (inactive), the GI50 (LOX IMVI) was > 100 µM (inactive) and the GI50 (M14) was > 100 µM (inactive). For the same molecule, the GI50 (MCF7) was > 100 µM (inactive), the GI50 (MDA-MB-231) was > 100 µM (inactive) and the GI50 (MDA-MB-435) was > 100 µM (inactive). The GI50 (MDA-N) was > 100 µM (inactive), the GI50 (MOLT-4) was > 100 µM (inactive) and the GI50 (Malme-3M) was > 100 µM (inactive). The GI50 (NCI-H226) was > 100 µM (inactive), the GI50 (NCI-H23) was > 100 µM (inactive) and the GI50 (NCI-H460) was > 100 µM (inactive). For the same molecule, the GI50 (NCI/ADR-RES) was > 100 µM (inactive), the GI50 (OVCAR-3) was > 100 µM (inactive) and the GI50 (OVCAR-4) was > 100 µM (inactive). For the same molecule, the GI50 (OVCAR-5) was > 100 µM (inactive), the GI50 (OVCAR-8) was > 100 µM (inactive) and the GI50 (PC-3) was > 100 µM (inactive). For the same molecule, the GI50 (RPMI-8226) was > 100 µM (inactive), the GI50 (RXF 393) was > 100 µM (inactive) and the GI50 (SF-268) was > 100 µM (inactive). For the same molecule, the GI50 (SF-295) was > 100 µM (inactive), the GI50 (SK-MEL-28) was > 100 µM (inactive) and the GI50 (SK-MEL-2) was > 100 µM (inactive). The GI50 (SK-MEL-5) was > 100 µM (inactive), the GI50 (SK-OV-3) was > 100 µM (inactive) and the GI50 (SN12C) was > 100 µM (inactive). For the same molecule, the GI50 (SNB-19) was > 100 µM (inactive), the GI50 (SNB-75) was > 100 µM (inactive) and the GI50 (SR) was > 100 µM (inactive). The GI50 (SW-620) was > 100 µM (inactive), the GI50 (T47D) was > 100 µM (inactive) and the GI50 (TK-10) was > 100 µM (inactive). For the same molecule, the GI50 (U-251) was > 100 µM (inactive), the GI50 (UACC-257) was > 100 µM (inactive) and the GI50 (UACC-62) was > 100 µM (inactive). The GI50 (UO-31) was > 100 µM (inactive).

In the case of CC(C)NC(=O)OCCN=C1c2ccccc2CCc2ccccc21, the GI50 (786-0) is reported as 43.6 µM (inactive), the GI50 (A549) is reported as 22.8 µM (inactive) and the GI50 (ACHN) is reported as 27.2 µM (inactive). The GI50 (BT-549) was 13.3 µM (inactive), the GI50 (CAKI-1) was 24.7 µM (inactive) and the GI50 (CCRF-CEM) was 19.6 µM (inactive). For the same molecule, the GI50 (COLO 205) was 19.1 µM (inactive), the GI50 (DU-145) was 25.5 µM (inactive) and the GI50 (EKVX) was 23.8 µM (inactive). For the same molecule, the GI50 (HCC 2998) was 18.4 µM (inactive), the GI50 (HCT-116) was 21.9 µM (inactive) and the GI50 (HCT-15) was 24.7 µM. The GI50 (HL-60) was 19.2 µM (inactive), the GI50 (HOP-62) was 21 µM (inactive) and the GI50 (HOP-92) was 24.5 µM (inactive). For the same molecule, the GI50 (HT-29) was 21.4 µM (inactive), the GI50 (Hs-578T) was 24 µM (inactive) and the GI50 (IGROV-1) was 35.1 µM (inactive). The GI50 (K562) was 21.5 µM (inactive), the GI50 (KM12) was 37.2 µM (inactive) and the GI50 (LOX IMVI) was 26.6 µM (inactive). For the same molecule, the GI50 (M14) was 20.3 µM (inactive), the GI50 (MCF7) was 22.6 µM (inactive) and the GI50 (MDA-MB-231) was 25.2 µM (inactive). For the same molecule, the GI50 (MDA-MB-435) was 30.6 µM (inactive), the GI50 (MDA-N) was 18.7 µM (inactive) and the GI50 (MOLT-4) was 14.8 µM (inactive). The GI50 (Malme-3M) was 15.5 µM (inactive), the GI50 (NCI-H226) was 25.6 µM (inactive) and the GI50 (NCI-H23) was 54.3 µM (inactive). The GI50 (NCI-H460) was 28.2 µM (inactive), the GI50 (NCI/ADR-RES) was 30.3 µM (inactive) and the GI50 (OVCAR-3) was 25 µM (inactive). The GI50 (OVCAR-4) was 12.2 µM (inactive), the GI50 (OVCAR-5) was 29.4 µM (inactive) and the GI50 (OVCAR-8) was 27 µM (inactive). For the same molecule, the GI50 (PC-3) was 20.5 µM (inactive), the GI50 (RPMI-8226) was 18.2 µM (inactive) and the GI50 (RXF 393) was 39.7 µM (inactive). For the same molecule, the GI50 (SF-268) was 26.2 µM (inactive), the GI50 (SF-295) was 14.7 µM (inactive) and the GI50 (SF-539) was 22.3 µM (inactive). For the same molecule, the GI50 (SK-MEL-28) was 19.7 µM (inactive), the GI50 (SK-MEL-2) was 16.4 µM (inactive) and the GI50 (SK-MEL-5) was 13.9 µM (inactive). The GI50 (SK-OV-3) was 24.8 µM (inactive), the GI50 (SN12C) was 18.8 µM (inactive) and the GI50 (SNB-19) was 20.9 µM (inactive). The GI50 (SNB-75) was 24.3 µM (inactive), the GI50 (SR) was 18.1 µM (inactive) and the GI50 (SW-620) was 28.3 µM (inactive). For the same molecule, the GI50 (T47D) was 21 µM (inactive), the GI50 (TK-10) was 26.1 µM (inactive) and the GI50 (U-251) was 23.8 µM (inactive). For the same molecule, the GI50 (UACC-257) was 22.9 µM (inactive), the GI50 (UACC-62) was 16.1 µM (inactive) and the GI50 (UO-31) was 23.1 µM (inactive).
